Assay results from ChEMBL document CHEMBL2380198, “SAR and evaluation of novel 5H-benzo[c][1,8]naphthyridin-6-one analogs as Aurora kinase inhibitors” (Bioorg Med Chem Lett, 2013).

Each molecule was assayed against Aurora kinase B (Homo sapiens, UniProt Q96GD4) (assay: Inhibition of aurora-B (unknown origin)).
Chain of Aurora kinase B (Q96GD4 whole entry): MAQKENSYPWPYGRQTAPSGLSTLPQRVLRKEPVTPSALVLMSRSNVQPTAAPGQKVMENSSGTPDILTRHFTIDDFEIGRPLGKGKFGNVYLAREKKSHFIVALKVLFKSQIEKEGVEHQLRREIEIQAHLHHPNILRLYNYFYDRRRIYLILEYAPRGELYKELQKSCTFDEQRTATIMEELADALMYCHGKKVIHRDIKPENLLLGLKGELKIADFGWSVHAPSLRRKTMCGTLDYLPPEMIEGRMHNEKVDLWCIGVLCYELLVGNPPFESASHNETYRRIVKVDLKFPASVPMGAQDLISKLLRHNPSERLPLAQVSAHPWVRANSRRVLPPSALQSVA

Row | Structure (SMILES) | IC50 [nM]
1 | O=C(Nc1ccc(Nc2ccnc3[nH]c(=O)c4ccccc4c23)cc1)c1ccc(F)cc1F | 1
2 | COc1cccc(F)c1C(=O)Nc1ccc(Nc2ccnc3[nH]c(=O)c4ccccc4c23)cc1 | 1
3 | O=C(Nc1ccc(Nc2ccnc3[nH]c(=O)c4ccccc4c23)cc1)c1cccc(C(F)(F)F)c1F | 1
4 | O=C(Nc1ccc(Nc2ccnc3[nH]c(=O)c4ccccc4c23)cc1)c1c(F)cccc1F | 0.6

Results, then the molecule that gave them:

Row | IC50 [nM] | Structure (SMILES)
5 | 6 | O=C(Nc1ccc(Nc2ccnc3[nH]c(=O)c4ccccc4c23)cc1)c1ccc(C(F)(F)F)cc1
6 | 2 | O=C(Nc1ccc(Nc2ccnc3[nH]c(=O)c4ccccc4c23)cc1)c1ccccc1F
7 | 79 | O=C(Nc1ccc(Nc2ccnc3[nH]c(=O)c4ccccc4c23)nc1)c1ccccc1
8 | 21 | O=C(Nc1ncc(Nc2ccnc3[nH]c(=O)c4ccccc4c23)cn1)c1ccccc1

What follows are molecules tested on MIA PaCa-2 (assay: Antiproliferative activity against human MIAPaCa2 cells).
Assay type: functional, cell-based

Row | Structure (SMILES) | IC50 [nM]
9 | O=C(Nc1ccc(Nc2ccnc3[nH]c(=O)c4ccccc4c23)cc1)c1cc(F)cc(C(F)(F)F)c1 | 211
10 | O=C(Nc1ccc(Nc2ccnc3[nH]c(=O)c4ccccc4c23)cc1)c1ccc(F)cc1F | 374
11 | O=C(Nc1ccc(Nc2ccnc3[nH]c(=O)c4ccccc4c23)cc1)c1ccc(C(F)(F)F)cc1F | 4990
12 | COc1cccc(F)c1C(=O)Nc1ccc(Nc2ccnc3[nH]c(=O)c4ccccc4c23)cc1 | 1190
13 | O=C(Nc1ccc(Nc2ccnc3[nH]c(=O)c4ccccc4c23)cc1)c1cccc(C(F)(F)F)c1F | 253
14 | O=C(Nc1ccc(Nc2ccnc3[nH]c(=O)c4ccccc4c23)cc1)c1c(F)cccc1F | 293

Further lines, results first:

Row | IC50 [nM] | Structure (SMILES)
15 | 2710 | O=C(Nc1ccc(Nc2ccnc3[nH]c(=O)c4ccccc4c23)cc1)c1ccc(C(F)(F)F)cc1
16 | 6250 | O=C(Nc1ccc(Nc2ccnc3[nH]c(=O)c4ccccc4c23)cc1)c1ccccc1F

Each molecule was assayed against T1, Aurora kinase A (Homo sapiens, UniProt O14965) (assay: Inhibition of aurora-A (unknown origin)).
T1 sequence (O14965 whole entry): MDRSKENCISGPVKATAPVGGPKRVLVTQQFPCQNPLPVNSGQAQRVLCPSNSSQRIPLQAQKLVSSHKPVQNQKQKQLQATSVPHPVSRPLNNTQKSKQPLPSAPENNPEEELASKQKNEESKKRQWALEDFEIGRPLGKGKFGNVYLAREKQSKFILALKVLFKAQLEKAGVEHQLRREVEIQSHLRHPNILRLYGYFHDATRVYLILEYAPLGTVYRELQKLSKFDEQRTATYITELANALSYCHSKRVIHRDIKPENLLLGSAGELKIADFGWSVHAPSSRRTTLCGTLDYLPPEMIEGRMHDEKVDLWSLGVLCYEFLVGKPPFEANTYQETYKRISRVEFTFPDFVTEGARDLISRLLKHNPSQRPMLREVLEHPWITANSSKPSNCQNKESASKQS

Row | Structure (SMILES) | IC50 [nM]
17 | Nc1ccnc2[nH]c(=O)c3ccccc3c12 | 3010
18 | O=C(Nc1ccc(Nc2ccnc3[nH]c(=O)c4ccccc4c23)cc1)c1cc(F)cc(C(F)(F)F)c1 | 9
19 | O=c1[nH]c2ncccc2c2ccccc12 | 5540
20 | CNc1ccc(Nc2ccnc3[nH]c(=O)c4ccccc4c23)cc1 | 471
21 | O=C(Nc1ccc(Nc2ccnc3[nH]c(=O)c4ccccc4c23)cc1)c1ccc(F)cc1F | 2
22 | O=C(Nc1ccc(Nc2ccnc3[nH]c(=O)c4ccccc4c23)cc1)c1ccc(C(F)(F)F)cc1F | 9
23 | COc1cccc(F)c1C(=O)Nc1ccc(Nc2ccnc3[nH]c(=O)c4ccccc4c23)cc1 | 3
24 | O=C(Nc1ccc(Nc2ccnc3[nH]c(=O)c4ccccc4c23)cc1)c1cccc(C(F)(F)F)c1F | 7
25 | O=C(Nc1ccc(Nc2ccnc3[nH]c(=O)c4ccccc4c23)cc1)c1c(F)cccc1F | 5

More lines, now with the values ahead:

Row | IC50 [nM] | Structure (SMILES)
26 | 1030 | O=c1[nH]c2nccc(Nc3ccccc3)c2c2ccccc12
27 | 27 | O=C(Nc1ccc(Nc2ccnc3[nH]c(=O)c4ccccc4c23)cc1)c1ccc(C(F)(F)F)cc1
28 | 9 | O=C(Nc1ccc(Nc2ccnc3[nH]c(=O)c4ccccc4c23)cc1)c1ccccc1F
29 | 615 | O=C(Nc1ccc(Nc2ccnc3[nH]c(=O)c4ccccc4c23)nc1)c1ccccc1
30 | 88 | O=C(Nc1ncc(Nc2ccnc3[nH]c(=O)c4ccccc4c23)cn1)c1ccccc1
